3 compounds from patent US20260102501A1, “ANTI-CANCER NUCLEAR HORMONE RECEPTOR-TARGETING COMPOUNDS” (Nuvation Bio Inc., priority 2022, published 2026) can be followed below.

Each structure is given as a SMILES string.

One test concerns LNCap cells. Description: Cell viability assay (CellTiterGlo). It counts as cell-based. The conditions noted are these: Homo sapiens, 144 h, 6 days incubation, CellTiterGlo, read-out: LNCap (IC50). In general terms: In ATP-based viability assays light output follows the ATP content of the culture.
The target in test [1] is T1, AR (cytosol from LnCaP cells) (Homo sapiens, UniProt P10275, T878A).
T1 sequence (P10275 1-920 T878A): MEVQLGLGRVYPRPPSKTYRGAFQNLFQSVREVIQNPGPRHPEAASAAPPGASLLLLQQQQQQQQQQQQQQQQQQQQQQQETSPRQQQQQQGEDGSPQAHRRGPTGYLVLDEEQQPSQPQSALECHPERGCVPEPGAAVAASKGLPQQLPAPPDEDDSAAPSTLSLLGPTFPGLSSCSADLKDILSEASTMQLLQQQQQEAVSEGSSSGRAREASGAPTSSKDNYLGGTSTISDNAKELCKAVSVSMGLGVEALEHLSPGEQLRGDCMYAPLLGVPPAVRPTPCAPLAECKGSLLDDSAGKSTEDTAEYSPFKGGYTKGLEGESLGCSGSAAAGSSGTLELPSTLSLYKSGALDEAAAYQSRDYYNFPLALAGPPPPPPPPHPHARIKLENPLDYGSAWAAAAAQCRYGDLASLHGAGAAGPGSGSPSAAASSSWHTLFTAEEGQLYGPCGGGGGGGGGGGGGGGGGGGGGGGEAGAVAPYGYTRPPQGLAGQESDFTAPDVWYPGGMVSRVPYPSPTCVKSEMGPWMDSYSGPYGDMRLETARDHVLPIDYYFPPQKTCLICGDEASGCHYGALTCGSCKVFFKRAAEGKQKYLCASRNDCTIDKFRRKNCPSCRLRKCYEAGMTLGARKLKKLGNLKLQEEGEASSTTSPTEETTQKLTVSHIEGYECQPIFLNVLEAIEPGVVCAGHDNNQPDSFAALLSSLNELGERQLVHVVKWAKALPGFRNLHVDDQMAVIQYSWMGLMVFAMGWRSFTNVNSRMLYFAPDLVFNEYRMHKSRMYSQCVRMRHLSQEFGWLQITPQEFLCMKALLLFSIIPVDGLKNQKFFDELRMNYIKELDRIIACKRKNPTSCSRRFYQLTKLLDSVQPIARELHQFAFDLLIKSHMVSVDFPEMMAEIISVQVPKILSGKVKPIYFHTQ
Description: AR binding assay (3H-R1881 displacement).
Description: The plate was then centrifuged at 3000 rpm for 30 minutes at 4° C.

Another test has as its system IEC6 cells. As to the kind of experiment: Cell viability assay (CellTiterGlo). The conditions noted are these: Rattus norvegicus, IEC-6, 144 h, read-out: IEC-6 (IC50, nM).
Test [2] concerns the target T2, GR (cytosol from IM-9 cells) (Homo sapiens, UniProt P04150).
T2 sequence (P04150 1-777): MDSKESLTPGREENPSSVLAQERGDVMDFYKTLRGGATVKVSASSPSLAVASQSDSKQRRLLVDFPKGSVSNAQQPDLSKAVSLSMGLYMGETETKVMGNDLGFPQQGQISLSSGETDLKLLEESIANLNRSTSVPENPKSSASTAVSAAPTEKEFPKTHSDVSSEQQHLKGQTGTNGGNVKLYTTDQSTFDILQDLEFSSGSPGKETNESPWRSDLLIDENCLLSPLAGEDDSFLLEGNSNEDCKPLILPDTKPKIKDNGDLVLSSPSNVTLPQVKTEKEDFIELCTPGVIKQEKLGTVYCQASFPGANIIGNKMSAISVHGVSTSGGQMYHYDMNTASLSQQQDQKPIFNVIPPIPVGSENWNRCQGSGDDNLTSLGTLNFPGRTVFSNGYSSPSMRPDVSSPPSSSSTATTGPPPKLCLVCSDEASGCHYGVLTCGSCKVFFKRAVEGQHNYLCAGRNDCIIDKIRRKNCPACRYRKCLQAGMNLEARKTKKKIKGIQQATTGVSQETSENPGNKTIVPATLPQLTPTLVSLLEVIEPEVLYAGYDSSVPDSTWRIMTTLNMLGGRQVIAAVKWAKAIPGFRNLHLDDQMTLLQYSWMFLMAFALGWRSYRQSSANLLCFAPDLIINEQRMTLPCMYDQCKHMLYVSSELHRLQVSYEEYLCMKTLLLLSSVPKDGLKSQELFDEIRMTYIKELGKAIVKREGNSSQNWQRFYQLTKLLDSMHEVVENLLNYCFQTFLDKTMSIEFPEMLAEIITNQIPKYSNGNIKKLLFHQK
As to the kind of experiment: GR binding assay (3H-Dexamethasone displacement).

For test [3], the target named is T3, Progesterone PR-B receptors from human breast carcinoma T47D cells (Homo sapiens, UniProt P06401).
T3 sequence (P06401 1-933): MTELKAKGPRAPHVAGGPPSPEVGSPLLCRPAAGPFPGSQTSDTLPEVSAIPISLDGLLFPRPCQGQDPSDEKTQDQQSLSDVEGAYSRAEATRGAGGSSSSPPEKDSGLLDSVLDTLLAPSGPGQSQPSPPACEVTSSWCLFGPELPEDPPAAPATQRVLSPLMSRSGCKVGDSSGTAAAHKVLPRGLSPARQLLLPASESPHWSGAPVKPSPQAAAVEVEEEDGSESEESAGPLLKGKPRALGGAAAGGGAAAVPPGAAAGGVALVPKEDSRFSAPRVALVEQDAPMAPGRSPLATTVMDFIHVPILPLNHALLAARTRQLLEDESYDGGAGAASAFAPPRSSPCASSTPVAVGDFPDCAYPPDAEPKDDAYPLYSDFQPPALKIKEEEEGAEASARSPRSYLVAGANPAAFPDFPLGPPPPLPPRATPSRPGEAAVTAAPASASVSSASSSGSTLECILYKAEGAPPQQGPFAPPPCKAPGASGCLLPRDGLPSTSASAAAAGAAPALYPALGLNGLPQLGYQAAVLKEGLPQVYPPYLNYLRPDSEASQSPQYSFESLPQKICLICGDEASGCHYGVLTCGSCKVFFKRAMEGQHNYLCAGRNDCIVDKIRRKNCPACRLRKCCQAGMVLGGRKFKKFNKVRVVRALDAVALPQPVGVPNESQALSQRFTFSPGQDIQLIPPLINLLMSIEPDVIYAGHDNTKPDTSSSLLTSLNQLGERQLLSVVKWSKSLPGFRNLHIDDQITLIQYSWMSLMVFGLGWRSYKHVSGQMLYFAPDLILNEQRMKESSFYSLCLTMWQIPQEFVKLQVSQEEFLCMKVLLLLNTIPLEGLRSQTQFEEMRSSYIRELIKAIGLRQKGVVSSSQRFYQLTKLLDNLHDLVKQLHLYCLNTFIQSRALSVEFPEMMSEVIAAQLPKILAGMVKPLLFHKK
Description: PR binding assay ([3H] Progesterone displacement).

As to `CC[C@@]1(O)C(=O)OCc2c1cc1n(c2=O)Cc2cc3c(CN(C)C)c(OCC4CCN(C(=O)CN(C)c5ccc([C@H]6C[C@@]7(C)[C@@H](CC[C@]7(OC(C)=O)C(C)=O)[C@@H]7CCC8=CC(=O)CCC8=C76)cc5)CC4)ccc3nc2-1` [Compound No. 19, (8S,11R,13S,14S,17R)-17-Acetyl-11-(4-((2-(4-((((S)-10-((dimethylamino)methyl)-4-ethyl-4-hydroxy-3,14-dioxo-3,4,12,14-tetrahydro-1H-pyrano[3′,4′:6,7]indolizino[1,2-b]quinolin-9-yl)oxy)methyl)-piperidin-1-yl)-2-oxoethyl)(methyl)amino)phenyl)-13-methyl-3-oxo-2,3,6,7,8,11,12,13,14,15,16,17-dodeca-hydro-1H-cyclopenta[a]phenanthren-17-yl acetate], the IC50 is 101 to 1000 nM in the test with LNCap cells; 10 to 100 nM in test [1]; more than 1000 nM with IEC6 cells; less than 10 nM in test [2]; less than 10 nM in test [3].
With `CC[C@@]1(O)C(=O)OCc2c1cc1n(c2=O)Cc2c-1nc1cc(F)c(C)c3c1c2[C@@H](NC(=O)COCCCCCCN(C)c1ccc([C@H]2C[C@@]4(C)[C@@H](CC[C@]4(OC(C)=O)C(C)=O)[C@@H]4CCC5=CC(=O)CCC5=C42)cc1)CC3` [Compound No. 47, (8S,11R,13S,14S,17R)-17-acetyl-11-(4-((6-(2-(((1S,9S)-9-ethyl-5-fluoro-9-hydroxy-4-methyl-10,13-dioxo-2,3,9,10,13,15-hexahydro-1H,12H-benzo[de]pyrano [3′,4′:6,7]indolizino[1,2-b]quinolin-1-yl)amino)-2-oxoethoxy)hexyl)(methyl)amino)phenyl)-13-methyl-3-oxo-2,3,6,7,8,11,12,13,14,15,16,17-dodecahydro-1H-cyclopenta[a]phenanthren-17-yl acetate], the IC50 in the test with LNCap cells was 10 to 100 nM; in test [1] it was 10 to 100 nM; in the test on IEC6 cells, 101 to 1000 nM; in test [2], less than 10 nM; in test [3], less than 10 nM.
As for `CC[C@@]1(O)C(=O)OCc2c1cc1n(c2=O)Cc2c-1nc1cc(F)c(C)c3c1c2[C@@H](NCC1CCN(CC2CCN(C(=O)CN(C)c4ccc([C@H]5C[C@@]6(C)[C@@H](CC[C@]6(OC(C)=O)C(C)=O)[C@@H]6CCC7=CC(=O)CCC7=C65)cc4)CC2)CC1)CC3` [Compound No. 51, (8S,11R,13S,14S,17R)-17-acetyl-11-(4-((2-(4-((4-((((1S,9S)-9-ethyl-5-fluoro-9-hydroxy-4-methyl-10,13-dioxo-2,3,9,10,13,15-hexahydro-1H,12H-benzo[de]pyrano[3′,4′:6,7]indolizino[1,2-b]quinolin-1-yl)amino)methyl)piperidin-1-yl)methyl)piperidin-1-yl)-2-oxoethyl)(methyl)amino)phenyl)-13-methyl-3-oxo-2,3,6,7,8,11,12,13,14,15,16,17-dodecahydro-1H-cyclopenta[a]phenanthren-17-yl acetate], the IC50 in the test on LNCap cells is 10 to 100 nM; in test [1], less than 10 nM; with IEC6 cells, 101 to 1000 nM; in test [2], 10 to 100 nM; in test [3] it was less than 10 nM.

The IC50 is the concentration needed to halve the response being measured.
